# According to US7390910B2, “Compounds for treating tumors” (priority 2003, dated 2008):
# Several values for one entry are separate records, joined by “and”; a condition that tells them apart may be missing. Equal entries are not always repeated. Marks after values point to notes of the source that are not given here. *1 amine or outer side, *2 acyl side, *3 side chain or, on linkers, in order; H or OH if unused. Where a SMILES comes first, the peptide text is derived from it. [ ]: non-standard residue; d: D form. The star is where a group is joined. NMePhe(β,β-Me2) = CN[C@H](C(=O)O)C(C)(C)c1ccccc1; X1 = C/C(=C\[C@H](C(C)C)N(C)[*:1])C(=O)[*:2]; Tle = CC(C)(C)[C@H](N)C(=O)O; NHBn = c1ccc(CN*)cc1
# Tests used:
# KB85 = experiment: cells; format: cell-based; details: for IC50: 3 days, SRB
# Method: (§1) Cell Survival Assay: Standard Pharmacological Test Procedure. […] Compounds are incubated with cells for 3 days.
# KBV1 = experiment: cells; format: cell-based; details: for IC50: 3 days, SRB; for inhibition at 3 µM: KB-V1, 3000 nM
# Method: as §1
# KB cells = experiment: cells; format: cell-based; details: for IC50: 3 days, SRB; for inhibition at 3 µM: 3000 nM
# Method: as §1
# [1] = system: bovine microtubule-associated protein (MAP)-rich tubulin; format: biochemical
# How it was run: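 MAP-rich bovine tubulin at 1.5 mg/ml final was dissolved in cold PEM buffer (80 mM Na-PIPES pH 6.9, 1 mM MgCl2, 1 mM EGTA) with 1 mM GTP, then centrifuged at 12,000×g for 10 min at 4° C. Aliquots of 100 μl were added quickly to a low-volume 96-well plate holding duplicate 10 μl compound samples. Absorbance at 340 nm was read each minute for 60 min at 24° C.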
# [2] = system: Human Melanoma Carcinoma Lox; experiment: Growth of tumors in nude mice (LOX xenograft); format: in vivo, athymic nu/nu female mice
# Text: Growth of Tumors in Nude Mice. […] A p-value ≦0.05 indicates a statistically significant reduction in relative tumor growth of treated group compared to that of the vehicle control group.
# NCl-H1299 = experiment: Cell survival assay (SRB), NCl-H1299; format: cell-based; details: NCl-H1299 cells
# Method: as §1
# HCT-15 = experiment: Cell survival assay (SRB), HCT-15; format: cell-based; details: HCT-15 cells
# Method: as §1
# LOX = experiment: Cell survival assay (SRB), LOX; format: cell-based, human; details: LOX cells
# Method: as §1
# Colo205 = experiment: Cell survival assay (SRB), Colo205; format: cell-based; details: Homo sapiens, COLO 205, 72 h, Colo205 cells, 3 days
# Method: as §1
# A375 = experiment: Cell survival assay (SRB), A375; format: cell-based; details: A375 cells
# Method: as §1
# S1 = experiment: Cell survival assay (SRB), S1; format: cell-based; details: S1 cells
# Method: as §1
# S1-M1 = experiment: Cell survival assay (SRB), S1-M1; format: cell-based; details: S1-M1 cells
# Method: as §1
Molecule,IC50 (KB85; 72 h),"IC50 (KBV1; Homo sapiens, KB-V1, 72 h)","IC50 (KB cells; Homo sapiens, KB, 72 h)",Tubulin Polym. % inhibition at 0.3 uM [1],IC50 (LOX; Homo sapiens),IC50 (Colo205),other results
"CN[C@H](C(=O)N[C@H](C(=O)N(C)[C@H](/C=C(\C)C(=O)N1CCC[C@H]1[C@H](OC)[C@@H](C)C(=O)OC)C(C)C)C(C)(C)C)C(C)(C)c1ccccc1 [Example 30, N,β,β-trimethyl-L-phenylalanyl-N^1-((1S,2E)-4-{(2S)-2-[(1R,2R)-1,3-dimethoxy-2-methyl-3-oxopropyl]pyrrolidin-1-yl}-1-isopropyl-3-methyl-4-oxobut-2-enyl)-N^1,3-dimethyl-L-valinamide]",0.006 µM,0.096 µM,0.0033 µM,45%,,,"% T/C on day 7 ([2]; 5 mg/kg IV on days 1, 5, 9): 11%; % T/C on day 14 ([2]; 5 mg/kg IV on days 1, 5, 9): 3%"
"CN[C@H](C(=O)N[C@H](C(=O)N(C)[C@H](/C=C(\C)C(C)=O)C(C)C)C(C)(C)C)C(C)(C)c1ccccc1 [Example 84, N,β,β-trimethyl-L-phenylalanyl-N^1-[(1S,2E)-1-isopropyl-3-methyl-4-oxo-2-pentenyl]-N^1,3-dimethyl-L-valinamide]",0.664 µM,2.36 µM,0.403 µM,69%,0.55 µM,0.18 µM,IC50 (NCl-H1299): 0.832 µM; IC50 (HCT-15; Homo sapiens): 1.26 µM
"CN[C@H](C(=O)N[C@H](C(=O)N(C)[C@H](/C=C(\C)C(=O)NN)C(C)C)C(C)(C)C)C(C)(C)c1ccccc1 [Example 109, (2S)-N-[(1S,2E)-4-hydrazino-1-isopropyl-3-methyl-4-oxo-2-butenyl]-N,3,3-trimethyl -{[(2S)-3-methyl-2-(methylamino)-3-phenylbutanoyl]amino}butanamide]",,,,,,,"IC50 (KB85): 0.227 µM; KBV1 % inhibition @ 3000 nM (KBV1): 23%; IC50 (KBV1): 2.08 µM; IC50 (KB cells): 0.065 µM; IC50 (A375): 0.019 µM; % T/C on day 7 ([2]; 3 mg/kg IV on days 1, 5, 9): 24%; % T/C on day 13 ([2]; 3 mg/kg IV on days 1, 5, 9, day 13): 8%"
CN[C@H](C(=O)N[C@H](C(=O)N(C)[C@H](/C=C(\C)C(=O)N1CCC[C@H]1[C@H](OC)[C@@H](C)C(=O)N[C@@H](Cc1ccccc1)c1nccs1)C(C)C)C(C)(C)C)C(C)(C)c1ccccc1 [Example 29],,,,62%,,,"IC50 (KB85): 0.0041 µM; IC50 (KBV1): 0.18 µM; IC50 (KB cells): 0.00075 µM; % T/C on day 7 ([2]; 10 mg/kg IV on days 1, 5, 9): 14%; % T/C on day 9 ([2]; 10 mg/kg IV on days 1, 5, 9, day 9): 9%"
"CN[C@H](C(=O)N[C@H](C(=O)N(C)[C@H](/C=C(\C)C(=O)N1CCC[C@H]1C(=O)OC)C(C)C)C(C)(C)C)C(C)(C)c1ccccc1 [Example 35, N,β,β-trimethyl-L-phenylalanyl-N^1-{(1S,2E)-4-[(2S)-2-(methoxycarbonyl)pyrrolidin-1-yl]-1-isopropyl-3-methyl-4-oxobut-2-enyl}-N^1,3-dimethyl-L-valinamide]",0.0073 µM,0.291 µM,0.0015 µM,82%,,,"IC50 (S1): 0.009 µM; IC50 (S1-M1): 0.011 µM; % T/C on day 7 ([2]; 2 mg/kg IV on days 1, 5, 9): 5%; % T/C on day 14 ([2]; 2 mg/kg IV on days 1, 5, 9): 1%"
"CN[C@H](C(=O)N[C@H](C(=O)N(C)[C@H](/C=C(\C)C(=O)N1CCOCC1)C(C)C)C(C)(C)C)C(C)(C)c1ccccc1 [Example 27, (2S)-N-[(1S,2E)-1-isopropyl-3-methyl-4-(4-morpholinyl)-4-oxo-2-butenyl]-N,3,3-trimethyl-2-{[(2S)-3-methyl-2-(methylamino)-3-phenylbutanoyl]amino}butanamide]",0.0735 µM,1.3 µM,0.0435 µM,69%,0.05 µM,0.023 µM,"IC50 (NCl-H1299): 0.038 µM; IC50 (HCT-15; Homo sapiens): 0.026 µM; IC50 (S1): 0.657 µM; IC50 (S1-M1): 0.336 µM; % T/C on day 7 ([2]; 10 mg/kg IV on days 1, 5, 9): 13% and 11%; % T/C on day 12 ([2]; 10 mg/kg IV on days 1, 5, 9, day 12): 2%; % T/C on day 14 ([2]; 10 mg/kg IV on days 1, 5, 9): 2%"
"CN[C@H](C(=O)N[C@H](C(=O)N(C)[C@H](/C=C(\C)C(=O)N1CCC[C@@H]1C(=O)N1CCC[C@@H]1C(=O)NCc1ccccc1)C(C)C)C(C)(C)C)C(C)(C)c1ccccc1 [Example 28, 1-{(2E,4S)-2,5-dimethyl-4-[methyl(N-methyl-3-phenyl-L-valyl-3-methyl-L-valyl)amino]hex-2-enoyl}-D-prolyl-N-benzyl-D-prolinamide] (H-[NMePhe(β,β-Me2)][Tle][X1][dP][dP]-NHBn)",0.0219 µM,,0.00107 µM,56(3) %,,0.00025 µM,"inhibition at 3 µM (KBV1; Homo sapiens): 14%; % T/C on day 7 ([2]; 10 mg/kg IV on days 1, 5, 9): 10%; % T/C on day 10 ([2]; 10 mg/kg IV on days 1, 5, 9, day 10): 4%"
"CN[C@H](C(=O)N[C@H](C(=O)N(C)[C@H](/C=C(\C)C(=O)N1CCN(C)CC1)C(C)C)C(C)(C)C)C(C)(C)c1ccccc1 [Example 26, N,β,β-trimethyl-L-phenylalanyl-N^1-[(1S,2E)-1-isopropyl-3-methyl-4-(4-methyl-1-piperazinyl)-4-oxo-2-butenyl]-N^1,3-dimethyl-L-valinamide]",0.06 µM,2.33 µM,0.033 µM,71(2) %,0.046 µM,,"% T/C on day 7 ([2]; 15 mg/kg IV on days 1, 5, 9): 4%"
"CO[C@H](C(=O)N[C@H](C(=O)N(C)[C@H](/C=C(\C)C(=O)O)C(C)C)C(C)(C)C)C(C)(C)c1ccccc1 [Example 105, (E,4S)-4-[{N-[(2S)-2-methoxy-3-methyl-3-phenylbutanoyl]-3-methyl-L-valyl}(methyl)amino]-2,5-dimethyl-2-hexenoic acid]",,,2.69 µM,64%,1.74 µM,1.74 µM,"inhibition at 3 µM (KB85; 3000 nM): 21%; inhibition at 3 µM (KBV1; Homo sapiens): 0%; inhibition at 3 µM (KB cells; Homo sapiens, 72 h): 43%"
"CN[C@H](C(=O)N[C@H](C(=O)N(C)[C@H](/C=C/c1nnn[nH]1)C(C)C)C(C)(C)C)C(C)(C)c1ccccc1 [Example 86, (2S)-N-[(1S,2E)-1-isopropyl-3-(1H-tetraazol-5-yl)-2-propenyl]-N,3,3-trimethyl-2-{[(2S)-3-methyl-2-(methylamino)-3-phenylbutanoyl]amino}butanamide]",1.82 µM,,1.15 µM,31%,,0.071 µM,inhibition at 3 µM (KBV1; Homo sapiens): 5%
"CCOC(=O)/C(C)=C/[C@H](C(C)C)N(C)C(=O)[C@@H](NC(=O)[C@@H](C)C(C)(C)c1ccccc1)C(C)(C)C [Example 91, Ethyl (E,4S)-4-[((2S)-2-{[(2S)-2,3-dimethyl-3-phenylbutanoyl]amino}-3,3-dimethylbutanoyl)(methyl)amino]-2,5-dimethyl-2-hexenoate]",> 3 µM,> 3 µM,,,,> 1 µM,"inhibition at 3 µM (KB cells; Homo sapiens, 72 h): 21%; Tubulin Polym. % inhibition at 2 uM ([1]; 2 uM): 84**** %"
"C/C(=C\[C@H](C(C)C)N(C)C(=O)[C@@H](NC(=O)[C@@H](C)C(C)(C)c1ccccc1)C(C)(C)C)C(=O)O [Example 92, (E,4S)-4-[((2S)-2-{[(2S)-2,3-dimethyl-3-phenylbutanoyl]amino}-3,3-dimethylbutanoyl)(methyl)amino]-2,5-dimethyl-2-hexenoic acid]",0.99 µM,,0.861 µM,94%,1.07 µM,,IC50 (NCl-H1299): 1.2 µM; IC50 (HCT-15; Homo sapiens): 1.38 µM; inhibition at 3 µM (KBV1; Homo sapiens): 30%
"CSC(C(=O)N[C@H](C(=O)N(C)[C@H](/C=C(\C)C(=O)O)C(C)C)C(C)(C)C)C(C)(C)c1ccccc1 (stereo partly drawn) [Example 102, (E,4S)-4-[((2S)-3,3-dimethyl-2-{[3-methyl-2-methylsulfanyl-3-phenylbutanoyl]amino}butanoyl)(methyl)amino]-2,5-dimethyl-2-hexenoic acid]",1.15 µM,,0.693 µM,79%,,0.28 µM,KBV1 % inhibition @6000 (KBV1; @6000): 40%@6000
"(2E,4S)-2,5-dimethyl-4-(methyl{3-methyl-N-[(2S)-3-methyl-2-(methylamino)-3-phenylbutyl]-L-valyl}amino)-2-hexenoic acid [Example 87]",,,,28%,,,IC50 (NCl-H1299): 0.295 µM; IC50 (HCT-15): 0.759 µM; IC50 (LOX): 0.151 µM; IC50 (KB85): 0.312 µM; KBV1 % inhibition @ 3000 nM (KBV1): 14%(2); IC50 (KB cells): 0.104 µM
